# Experiment: Example 1: liver biomarkers (total bilirubin, ALT, AST, ALP) in short bowel syndrome patients, every four weeks for 24 weeks; also sorted by >5% change from baseline
# Format: in vivo, Human
# Design: AST (SGOT) Change from Baseline Median / ALT (SGPT) Median / TOTAL BILIRUBIN Median / TOTAL BILIRUBIN Change from Baseline Median / ALT (SGPT) Change from Baseline Median / AST (SGOT) Median: unit not given here
# Settings: 0.05 mg/kg/day
# Procedure: Human patients with short bowel syndrome were divided into three groups: a control group (16 total individuals) to receive placebo, an experimental group (35 total individuals) to receive teduglutide at 0.05 mg/kg/day throughout the study, and an experimental group (32 total individuals) to receive teduglutide at 0.1 mg/kg/day throughout the study. Patients were treated by subcutaneous injection of placebo or the appropriate dose of teduglutide. As individuals with short bowel syndrome are likely to experience associated liver and kidney disease, known biomarkers of liver and kidney function were monitored every four weeks, for 24 weeks. The liver biomarkers tested included total bilirubin, ALT and AST and ALP. The kidney biomarkers tested included urea nitrogen, creatinine and GFR. Before administration of placebo or teduglutide, diagnostic biomarker levels were tested to establish a baseline for each individual.
# To visualize the effect of GLP-2 on the levels of the diagnostic biomarkers, the average change from baseline was calculated for the placebo and teduglutide treated groups for each visit after a baseline was established. The average change from baseline of each group is depicted in FIGS. 1-7. The numerical figures for each diagnostic biomarker at each time point are depicted in Table 1.
# The efficacy of teduglutide in treating liver dysfunction was further tested by sorting the data into two groups: individuals with abnormal baseline values of liver diagnostic biomarkers; and individuals with normal baseline values of liver diagnostic biomarkers. The mean diagnostic biomarker change from baseline for these two groups is shown for ALT (FIGS. 5 and 6) and AST (FIGS. 7 and 8). […] These changes were significant when compared to baseline levels for the group, and when compared to placebo (see FIGS. 5 and 7).
# The raw data for this sorting is reproduced in Table 2 below.
compound,measurement,setting,value
CC[C@H](C)[C@H](NC(=O)[C@H](Cc1ccccc1)NC(=O)[C@H](CC(=O)O)NC(=O)[C@H](CCCNC(=N)N)NC(=O)[C@H](C)NC(=O)[C@H](C)NC(=O)[C@H](CC(C)C)NC(=O)[C@H](CC(N)=O)NC(=O)[C@H](CC(=O)O)NC(=O)[C@H](CC(C)C)NC(=O)[C@@H](NC(=O)[C@@H](NC(=O)[C@H](CC(N)=O)NC(=O)[C@H](CCSC)NC(=O)[C@H](CCC(=O)O)NC(=O)[C@H](CC(=O)O)NC(=O)[C@H](CO)NC(=O)[C@H](Cc1ccccc1)NC(=O)[C@H](CO)NC(=O)CNC(=O)[C@H](CC(=O)O)NC(=O)CNC(=O)[C@@H](N)Cc1c[nH]cn1)[C@@H](C)O)[C@@H](C)CC)C(=O)N[C@@H](CC(N)=O)C(=O)N[C@@H](Cc1c[nH]c2ccccc12)C(=O)N[C@@H](CC(C)C)C(=O)N[C@H](C(=O)N[C@@H](CCC(N)=O)C(=O)N[C@H](C(=O)N[C@@H](CCCCN)C(=O)N[C@H](C(=O)N[C@H](C(=O)N[C@@H](CC(=O)O)C(=O)O)[C@@H](C)O)[C@@H](C)CC)[C@@H](C)O)[C@@H](C)CC [teduglutide],ALKALINE PHOSPHATASE Change from Baseline Median,DW4,−16.0
same,ALT (SGPT) Change from Baseline Median,DW4,−5.0
same,ALT (SGPT) Median,DW4,27.0
same,AST (SGOT) Change from Baseline Median,DW4,−4.0
same,AST (SGOT) Median,DW4,27.0
same,TOTAL BILIRUBIN Change from Baseline Median,DW4,0.0
same,TOTAL BILIRUBIN Median,DW4,7.0
same,ALKALINE PHOSPHATASE Change from Baseline Median,DW8,−20.0
same,ALT (SGPT) Change from Baseline Median,DW8,−4.0
same,AST (SGOT) Change from Baseline Median,DW8,−3.0
same,AST (SGOT) Median,DW8,28.0
same,TOTAL BILIRUBIN Change from Baseline Median,DW8,−1.0
same,TOTAL BILIRUBIN Median,DW8,8.0
same,ALKALINE PHOSPHATASE Change from Baseline Median,DW12,−24.0
same,ALT (SGPT) Change from Baseline Median,DW12,−10.0
same,ALT (SGPT) Median,DW12,26.0
same,AST (SGOT) Change from Baseline Median,DW12,−8.0
same,TOTAL BILIRUBIN Change from Baseline Median,DW12,−1.0
same,TOTAL BILIRUBIN Median,DW12,7.0
same,ALT (SGPT) Change from Baseline Median,DW16,−2.5
same,ALT (SGPT) Median,DW16,28.0
same,AST (SGOT) Change from Baseline Median,DW16,−1.5
same,AST (SGOT) Median,DW16,25.0
same,TOTAL BILIRUBIN Change from Baseline Median,DW16,−1.0
same,TOTAL BILIRUBIN Median,DW16,7.0
same,ALKALINE PHOSPHATASE Change from Baseline Median,DW20,−25.0
same,ALT (SGPT) Change from Baseline Median,DW20,−5.0
same,ALT (SGPT) Median,DW20,26.0
same,AST (SGOT) Change from Baseline Median,DW20,−4.0
same,AST (SGOT) Median,DW20,25.0
same,TOTAL BILIRUBIN Change from Baseline Median,DW20,0.0
same,TOTAL BILIRUBIN Median,DW20,9.0
same,ALKALINE PHOSPHATASE Change from Baseline Median,DW 24,−29.0
same,ALT (SGPT) Change from Baseline Median,DW 24,−5.0
same,ALT (SGPT) Median,DW 24,20.0
same,AST (SGOT) Change from Baseline Median,DW 24,−4.5
same,AST (SGOT) Median,DW 24,25.0
same,TOTAL BILIRUBIN Change from Baseline Median,DW 24,0.0
same,TOTAL BILIRUBIN Median,DW 24,8.0
same,"ALKALINE PHOSPHATASE change from baseline <−5%, number of patients",week 4,21
same,"ALKALINE PHOSPHATASE change from baseline <−5%, percent of patients",week 4,(60.0%)
same,"ALKALINE PHOSPHATASE change from baseline >5%, number of patients",week 4,3
same,"ALKALINE PHOSPHATASE change from baseline >5%, percent of patients",week 4,(8.6%)
same,"ALKALINE PHOSPHATASE change from baseline −5% <= and <=5%, number of patients",week 4,6
same,"ALKALINE PHOSPHATASE change from baseline −5% <= and <=5%, percent of patients",week 4,(17.1%)
same,"ALT (SGPT) change from baseline <−5%, number of patients",week 4,22
same,"ALT (SGPT) change from baseline <−5%, percent of patients",week 4,(62.9%)
same,"ALT (SGPT) change from baseline >5%, number of patients",week 4,8
same,"ALT (SGPT) change from baseline >5%, percent of patients",week 4,(22.9%)
same,"ALT (SGPT) change from baseline −5% <= and <=5%, number of patients",week 4,0
same,"ALT (SGPT) change from baseline −5% <= and <=5%, percent of patients",week 4,(0.0%)
same,"AST (SGOT) change from baseline <−5%, number of patients",week 4,21
same,"AST (SGOT) change from baseline <−5%, percent of patients",week 4,(60.0%)
same,"AST (SGOT) change from baseline >5%, number of patients",week 4,5
same,"AST (SGOT) change from baseline >5%, percent of patients",week 4,(14.3%)
same,"AST (SGOT) change from baseline −5% <= and <=5%, number of patients",week 4,2
same,"AST (SGOT) change from baseline −5% <= and <=5%, percent of patients",week 4,(5.7%)
same,"TOTAL BILIRUBIN change from baseline <−5%, number of patients",week 4,12
same,"TOTAL BILIRUBIN change from baseline <−5%, percent of patients",week 4,(34.3%)
same,"TOTAL BILIRUBIN change from baseline >5%, number of patients",week 4,8
same,"TOTAL BILIRUBIN change from baseline >5%, percent of patients",week 4,(22.9%)
same,"TOTAL BILIRUBIN change from baseline −5% <= and <=5%, number of patients",week 4,6
same,"TOTAL BILIRUBIN change from baseline −5% <= and <=5%, percent of patients",week 4,(17.1%)
same,"ALKALINE PHOSPHATASE change from baseline <−5%, number of patients",week 8,21
same,"ALKALINE PHOSPHATASE change from baseline <−5%, percent of patients",week 8,(60.0%)
same,"ALKALINE PHOSPHATASE change from baseline >5%, number of patients",week 8,6
same,"ALKALINE PHOSPHATASE change from baseline >5%, percent of patients",week 8,(17.1%)
same,"ALKALINE PHOSPHATASE change from baseline −5% <= and <=5%, number of patients",week 8,2
same,"ALKALINE PHOSPHATASE change from baseline −5% <= and <=5%, percent of patients",week 8,(5.7%)
same,"ALT (SGPT) change from baseline <−5%, number of patients",week 8,16
same,"ALT (SGPT) change from baseline <−5%, percent of patients",week 8,(45.7%)
same,"ALT (SGPT) change from baseline >5%, number of patients",week 8,9
same,"ALT (SGPT) change from baseline >5%, percent of patients",week 8,(25.7%)
same,"ALT (SGPT) change from baseline −5% <= and <=5%, number of patients",week 8,4
same,"ALT (SGPT) change from baseline −5% <= and <=5%, percent of patients",week 8,(11.4%)
same,"AST (SGOT) change from baseline <−5%, number of patients",week 8,16
same,"AST (SGOT) change from baseline <−5%, percent of patients",week 8,(45.7%)
same,"AST (SGOT) change from baseline >5%, number of patients",week 8,9
same,"AST (SGOT) change from baseline >5%, percent of patients",week 8,(25.7%)
same,"AST (SGOT) change from baseline −5% <= and <=5%, number of patients",week 8,4
same,"AST (SGOT) change from baseline −5% <= and <=5%, percent of patients",week 8,(11.4%)
same,"TOTAL BILIRUBIN change from baseline <−5%, number of patients",week 8,13
same,"TOTAL BILIRUBIN change from baseline <−5%, percent of patients",week 8,(37.1%)
same,"TOTAL BILIRUBIN change from baseline >5%, number of patients",week 8,8
same,"TOTAL BILIRUBIN change from baseline >5%, percent of patients",week 8,(22.9%)
same,"TOTAL BILIRUBIN change from baseline −5% <= and <=5%, number of patients",week 8,4
same,"TOTAL BILIRUBIN change from baseline −5% <= and <=5%, percent of patients",week 8,(11.4%)
same,"ALKALINE PHOSPHATASE change from baseline <−5%, number of patients",week 12,23
same,"ALKALINE PHOSPHATASE change from baseline <−5%, percent of patients",week 12,(65.7%)
same,"ALKALINE PHOSPHATASE change from baseline >5%, number of patients",week 12,2
same,"ALKALINE PHOSPHATASE change from baseline >5%, percent of patients",week 12,(5.7%)
same,"ALKALINE PHOSPHATASE change from baseline −5% <= and <=5%, number of patients",week 12,2

# From patent US20130157954A1, “METHODS FOR TREATMENT OR PROPHYLAXIS OF KIDNEY OR LIVER DYSFUNCTION” (NPS PHARMACEUTICALS, INC., priority 2010, published 2013)
